Tests used:
[1] = test system: ERK and p38 in colon carcinoma cells; set-up: method as in PMID 21170925; settings: cited from earlier work
[2] = Pharmacokinetics of decursin in plasma after oral administration of RAGE; assay type: in vivo, SD rats
Experimental: Quantification of decursin was performed using an Accela LC system (Thermo Fisher Scientific; MA, USA) equipped with an autosampler, degasser, and quaternary solvent pump. Decursin and IS were separated on a Hypersil GOLD C18 column (2.1 mm × 100 mm, 1.9 μm; Thermo Fisher Scientific, MA, USA) at 35℃. The flow rate was set at 300 μL/min with an injection volume of 5 μL. The mobile phase consisted of water (containing 0.1% formic acid, A) and acetonitrile (B) and the gradient elution applied was as follows: 30–60% (B) for 0–4 min, 60% (B) for 0.5 min, and then re-equilibrated to 30% (B) until the end of the analysis. An LCQ Fleet ion-trap mass spectrometer (Thermo Fisher Scientific; MA, USA) was used to detect compounds in the eluent using the electrospray ionization source in the positive-ion mode. MS conditions were as follows: sheath gas (nitrogen), 50 arbitrary units; auxiliary gas (nitrogen), 20 arbitrary units; spray voltage, 5.0 kV; capillary temperature, 300℃; and capillary voltage, 30.0 V. Quantification of the compound was performed in the selective ion monitoring mode at 329 m/z [M+H]^+ for decursin and 415 m/z [M+H]^+ for the IS. Data was processed using Excalibur (v. 2.1.0; Thermo Fisher Scientific, CA, USA). Accurately weighed decursin and IS were dissolved in methanol at a concentration of 100 μg/mL, and the solution was diluted with methanol to prepare working solutions for the construction of the calibration curve. Calibration standards were prepared using 150 μL of blank rat plasma spiked with 10 μL of working solutions and 10 μL of IS solution, which was extracted using ethyl acetate. Plasma samples were prepared using a liquid–liquid extraction method. An aliquot of 150 μL plasma sample was spiked with 10 μL of IS solution and 10 μL of methanol, and 800 μL of ethyl acetate was added. Extraction of decursin and IS was performed by vortex mixing for 2 min at 25℃, followed by centrifugation at 704 × g for 10 min at 20℃. The upper layer (ethyl acetate) was then transferred to a clean 1.5 mL polypropylene tube and evaporated using a nitrogen gas blowing concentrator (MGS–2200; EYELA, Miyagi, Japan). The residue obtained after evaporation was reconstituted in 100 μL of methanol, vortex mixed for 2 min, and centrifuged at 704 × g for 10 min at 20℃. The supernatant was transferred to a glass vial and a 5 μL aliquot was injected into the UPLC–MS/MS system. […] Blood samples ([…]) were collected from a jugular vein in heparinized tubes before the administration, and 0.17, 0.5, 1, 2, 4, 6, 8, 12, 24, or 48 h after intragastric administration. Collected blood samples were immediately centrifuged at 704 × g for 10 min, and 150 μL aliquots of supernatant plasma were transferred to clean tubes and stored at -20 °C until analysis. The pharmacokinetic parameters of decursin were calculated using plasma concentration of decursin versus time data using PKSolver (a free add-in program for Microsoft Excel).

[3] = oral RAGE 100 mg/rat, mean ± SD, n = 6

half-life ([2]; SD, rat, after oral administration of RAGE, as restated in the discussion)	AUC(0-t) ([2]; oral RAGE 100 mg/rat, 0 to 48 h, mean ± SD, n = 6)	MRT last ([2]; oral RAGE 100 mg/rat, 0 to 48 h, mean ± SD, n = 6, read-out: MRT0-t)	concentration at 48 h ([2]; oral RAGE 100 mg/rat, last measured concentration, mean ± SD, n = 6, read-out: Clast)	AUC(0-inf) [2, 3]	Cmax [2, 3]	Tmax [2, 3]	half-life [2, 3]	MRT inf ([2]; oral RAGE 100 mg/rat, mean ± SD, n = 6, read-out: MRT0-∞)	SMILES	activities of ERK and p38 [1]
8.28 h	1190 ± 324 ng·h/mL	5.43 ± 0.581 h	2.62 ± 0.665 ng/mL	1220 ± 326 ng·h/mL	408 ± 85.7 ng/mL	1.75 ± 1.25 h	8.28 ± 0.538 h	6.9 ± 0.954 h	CC(C)=CC(=O)O[C@H]1Cc2cc3ccc(=O)oc3cc2OC1(C)C [decursin]	inhibited
									CC1(C)Oc2cc3oc(=O)ccc3cc2C[C@@H]1O [decursinol]	inhibited

From paper PMC7509924, “Neuroprotective effect of Angelica gigas root in a mouse model of ischemic brain injury through MAPK signaling pathway regulation” (Chinese Medicine, 2020)
